According to patent US20220370453A1 (Storm Therapeutics Ltd, priority 2019, published 2022):

Columns and labels:
BCDIN3D [1] = biological target: T1, BCDIN3D (Homo sapiens, UniProt Q7Z5W3); experiment: BCDIN3D InCellPulse thermal stability assay in transfected A549 cells; format: cell-based; conditions: heat shock 58° C. 15 min
T1 sequence (Q7Z5W3 1-292): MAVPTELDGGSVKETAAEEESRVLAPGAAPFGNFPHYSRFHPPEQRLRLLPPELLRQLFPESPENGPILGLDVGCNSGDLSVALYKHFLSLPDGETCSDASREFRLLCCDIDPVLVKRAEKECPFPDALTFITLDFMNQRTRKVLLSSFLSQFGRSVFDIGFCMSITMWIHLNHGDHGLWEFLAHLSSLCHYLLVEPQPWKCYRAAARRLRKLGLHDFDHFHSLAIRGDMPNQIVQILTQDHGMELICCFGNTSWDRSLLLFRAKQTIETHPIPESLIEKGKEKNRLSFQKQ
In short: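 A549 cells transiently expressing BCDIN3D N-terminally fused to ePL ProLabel tag, 1500 cells/well, pre-incubated 1 h at 37 °C with compound (0.6% DMSO). Heat shock 58 °C for 15 min; remaining soluble fusion detected by split β-galactosidase complementation luminescence.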

BCDIN3D [2] = biological target: T1, BCDIN3D; experiment: BCDIN3D IC50 RFMS (RapidFire) assay with mini-helix; format: biochemical; conditions: 25 nM enzyme
In short: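 25 nM enzyme preincubated 10 min at room temperature with compound (1% DMSO) in 25 mM Tris pH 8.0, 10 mM DTT, 1 mM EDTA, 0.03% BSA. Reaction started with 0.2 μM mini-helix plus 6 μM SAM, run 1 h at 37 °C, quenched with TCA; SAH product quantified by RapidFire MS against isotopic SAH standards.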

[3] = transiently transfected A549 cells
[4] = mini-helix substrate 0.2 μM, SAM 6 μM
[5] = A549 cells transiently transfected with ePL-BCDIN3D, 1 h pre-incubation
[6] = mini-helix 0.2 μM and SAM 6 μM as substrates, 1 hr at 37° C.

SMILES	IC50 (BCDIN3D [1]; [3]) [nM]	IC50 (BCDIN3D [2]; [4]) [nM]	IC50 (BCDIN3D [1]; [5]) [nM]	IC50 (BCDIN3D [2]; [6]) [nM]
Cc1ccc(CNc2nc(NCC(N)CF)nc3c2cnn3C)cc1Cl (stereo not shown) [Compound 3.25, N6-(2-Amino-3-fluoropropyl)-N4-[(3-chloro-4-methylphenyl)methyl]-1-methyl-1H-pyrazolo[3,4-d]pyrimidine-4,6-diamine]	5500	6170	–	–
COc1ccc(CNc2nc(NCCN)nc3c2cnn3C)cc1Cl [Compound 1.25, N6-(2-aminoethyl)-N4-[(3-chloro-4-methoxyphenyl)methyl]-1methyl-1H-pyrazolo[3,4-d]pyrimidine-4,6-diamine]	–	–	7720	1660
Cn1ncc2c(NCc3ccc(-c4ccccc4)cc3)nc(NCCN)nc21 [Compound 1.05, N6-(2-aminoethyl)-1-methyl-N4-[(4-phenylphenyl)methyl]pyrazolo[3,4-d]pyrimidine-4,6-diamine]	–	–	2970	2210
CC[C@H](N)CNc1nc(NCc2ccc(C)c(Cl)c2)c2cnn(C)c2n1 [Compound 3.06, 6-N-[(2S)-2-aminobutyl]-4-N-[(3-chloro-4-methylphenyl)methyl]-1-methylpyrazolo[3,4-d]pyrimidine-4,6-diamine]	4420	3420	–	–
Cn1ncc2c(NCc3ccc(F)cc3F)nc(NCC(N)c3ccccc3)nc21 (stereo not shown) [Compound 4.04, 6-N-(2-amino-2-phenylethyl)-4-N-[(2,4-difluorophenyl)methyl]-1-methylpyrazolo[3,4-d]pyrimidine-4,6-diamine]	820	424	–	–
COc1ccc(CNc2nc(NCC(C)(C)N)nc3c2c(C)nn3C)cc1Cl [Compound 1.30, N6-(2-amino-2-methylpropyl)-N4-[(3-chloro-4-methoxyphenyl)methyl]-1,3-dimethyl-1H-pyrazolo[3,4-d]pyrimidine-4,6-diamine]	–	–	3790	1850
Cn1ncc2c(OC(C)(C)C)nc(NCC(N)c3ccccc3)nc21 (stereo not shown) [Compound 6.05, N′-(4-tert-butoxy-1-methyl-pyrazolo[3,4-d]pyrimidin-6-yl)-1-phenyl-ethane-1,2-diamine]	–	–	5140	4160
Cc1ccc(CNc2nc(NC3CCCCC3N)nc3c2cnn3C)cc1Cl (stereo not shown) [Compound 1.34, 6-N-(2-aminocyclohexyl)-4-N-[(3-chloro-4-methylphenyl)methyl]-1-methylpyrazolo[3,4-d]pyrimidine-4,6-diamine]	–	–	1410	1140
Cn1ncc2c(Nc3cccnc3)nc(NCC3(N)CC3)nc21 [Compound 2.10, 6-N-[(1-aminocyclopropyl)methyl]-1-methyl-4-N-pyridin-3-ylpyrazolo[3,4-d]pyrimidine-4,6-diamine]	15700	8680	–	–
Cn1ncc2c(NCc3ccc(F)c(Cl)c3)nc(NCC3(N)CC3)nc21 [Compound 2.02, 6-N-[(1-Aminocyclopropyl)methyl]-4-N-[(3-chloro-4-fluorophenyl)methyl]-1-methylpyrazolo[3,4-d]pyrimidine-4,6-diamine]	1910	505	–	–
Cn1ncc2c(Nc3ccc(F)cc3)nc(NCC3(N)CC3)nc21 [Compound 2.08, 6-N-[(1-aminocyclopropyl)methyl]-4-N-(4-fluorophenyl)-1-methylpyrazolo[3,4-d]pyrimidine-4,6-diamine]	2720	242	–	–
Cn1ncc2c(Nc3cccc(F)c3F)nc(NCC3(N)CC3)nc21 [Compound 2.24, 6-N-[(1-aminocyclopropyl)methyl]-4-N-(2,3-difluorophenyl)-1-methylpyrazolo[3,4-d]pyrimidine-4,6-diamine]	3500	2460	–	–
Cn1ncc2c(Nc3ccc(F)cc3Cl)nc(NCC3(N)CC3)nc21 [Compound 2.14, 6-N-[(1-aminocyclopropyl)methyl]-4-N-(2-chloro-4-fluorophenyl)-1-methylpyrazolo[3,4-d]pyrimidine-4,6-diamine]	9590	5960	–	–
COc1ccc(CNc2nc(NCC(C)(C)N)nc3c2cnn3C)cc1 [Compound 1.27, N6-(2-amino-2-methylpropyl)-N4-[(4-methoxyphenyl)methyl]-1-methyl-1H-pyrazolo[3,4-d]pyrimidine-4,6-diamine]	–	–	5340	2880
COc1ccc(Nc2nc(NCC3(N)CC3)nc3c2cnn3C)cc1 [Compound 2.33, 6-N-[(1-aminocyclopropyl)methyl]-4-N-(4-methoxyphenyl)-1-methylpyrazolo[3,4-d]pyrimidine-4,6-diamine]	3860	327	–	–

Now from value to molecule:

IC50 (BCDIN3D [1]; [3]) [nM]	IC50 (BCDIN3D [2]; [4]) [nM]	IC50 (BCDIN3D [1]; [5]) [nM]	IC50 (BCDIN3D [2]; [6]) [nM]	SMILES
282	118	–	–	Cn1ncc2c(NC(C)(C)C)nc(NC[C@H](N)c3ccccc3)nc21 [Compound 4.53, 6-N-[(2R)-2-amino-2-phenylethyl]-4-N-tert-butyl-1-methylpyrazolo[3,4-d]pyrimidine-4,6-diamine]
767	375	–	–	CC(C)Nc1nc(NCC(N)c2ccc(Br)cc2)nc2c1cnn2C (stereo not shown) [Compound 5.19, 6-N-[2-amino-2-(4-bromophenyl)ethyl]-1-methyl-4-N-propan-2-ylpyrazolo[3,4-d]pyrimidine-4,6-diamine]
27	24	–	–	Cn1ncc2c(NC3CC4(CC4)C3)nc(NC[C@H](N)c3ccccc3)nc21 [Compound 4.119, 1-methyl-N6-[(2R)-2-amino-2-phenyl-ethyl]-N4-spiro[2.3]hexan-5-yl-pyrazolo[3,4-d]pyrimidine-4,6-diamine]
618	280	–	–	Cn1ncc2c(NCC3(F)CCC3)nc(NC[C@H](N)c3ccccc3)nc21 [Compound 4.107, N6-[(2R)-2-amino-2-phenyl-ethyl]-N4-[(1-fluorocyclobutyl)methyl]-1-methyl-pyrazolo[3,4-d]pyrimidine-4,6-diamine]
3560	1410	–	–	CC(C)[C@H](C)Nc1nc(NC[C@H](N)c2ccccc2)nc2c1cnn2C [Compound 4.123, N6-[(2R)-2-amino-2-phenylethyl]-1-methyl-N4-[(2S)-3-methylbutan-2-yl]-1H-pyrazolo[3,4-d]pyrimidine-4,6-diamine]
882	135	–	–	Cc1ccc(CNc2nc(NCC(N)c3cccnc3)nc3c2cnn3C)cc1Cl (stereo not shown) [Compound 5.07, 6-N-(2-amino-2-pyridin-3-ylethyl)-4-N-[(3-chloro-4-methylphenyl)methyl]-1-methylpyrazolo[3,4-d]pyrimidine-4,6-diamine]
323	71.7	–	–	Cn1ncc2c(Nc3ccc(F)cc3)nc(NCC(N)c3ccccc3)nc21 (stereo not shown) [Compound 4.10, 6-N-(2-amino-2-phenylethyl)-4-N-(4-fluorophenyl)-1-methylpyrazolo[3,4-d]pyrimidine-4,6-diamine]
1450	1600	–	–	Cn1ncc2c(NC3(C)CC(F)(F)C3)nc(NC[C@H](N)c3ccccc3)nc21 [Compound 4.86, N6-[(2R)-2-amino-2-phenyl-ethyl]-N4-(3,3-difluoro-1-methyl-cyclobutyl)-1-methyl-pyrazolo[3,4-d]pyrimidine-4,6-diamine]
14.4	13.9	–	–	[2H]C([2H])([2H])n1ncc2c(Nc3ccc(C(F)(F)F)cc3)nc(NC[C@H](N)c3ccccc3)nc21 [Compound 4.24, N6-[(2R)-2-amino-2-phenyl-ethyl]-1-(trideuteriomethyl)-N4-[4-(trifluoromethyl)phenyl]pyrazolo[3,4-d]pyrimidine-4,6-diamine]
17	8	–	–	Cn1ncc2c(NC3CC4(CCC4)C3)nc(NC[C@H](N)c3ccccc3)nc21 [Compound 4.99, N6-[(2R)-2-amino-2-phenyl-ethyl]-1-methyl-N4-spiro[3.3]heptan-2-yl-pyrazolo[3,4-d]pyrimidine-4,6-diamine]
47	6.1	–	–	Cn1ncc2c(NC3CC4(C3)CC(F)(F)C4)nc(NC[C@H](N)c3ccccc3)nc21 [Compound 4.94, N6-[(2R)-2-amino-2-phenyl-ethyl]-N4-(2,2-difluorospiro[3.3]heptan-6-yl)-1-methyl-pyrazolo[3,4-d]pyrimidine-4,6-diamine]
330	463	–	–	CCC(C)(C)Nc1nc(NC[C@H](N)c2ccccc2)nc2c1cnn2C [Compound 4.101, N6-[(2R)-2-amino-2-phenyl-ethyl]-N4-(1,1-dimethylpropyl)-1-methyl-pyrazolo[3,4-d]pyrimidine-4,6-diamine]
292	369	–	–	Cn1ncc2c(NC3(C)CCCCC3)nc(NC[C@H](N)c3ccccc3)nc21 [Compound 4.111, N6-[(2R)-2-amino-2-phenyl-ethyl]-1-methyl-N4-(1-methylcyclohexyl)pyrazolo[3,4-d]pyrimidine-4,6-diamine]
270	288	–	–	Cc1nn(C)c2nc(NCC(N)c3ccccc3)nc(Nc3ccc(C(F)(F)F)cc3)c12 (stereo not shown) [Compound 4.18, 6-N-(2-amino-2-phenylethyl)-1,3-dimethyl-4-N-[4-(trifluoromethyl)phenyl]pyrazolo[3,4-d]pyrimidine-4,6-diamine]
